In PubChem BioAssay AID1845219 (Molecular Pharmacology Branch, DTP, NCI, 2023):
pIC50: −log10 of the molar value.

Test system: SYO-1 tumor spheroids, viability % test/control
Assay: Anticancer human tumor SYO-1 cell line growth inhibition;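 further: spheroids exposed to agents for 7 days before viability read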;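 on viability, T/C: 100% = DMSO vehicle control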
Conditions: spheroids with HUVEC and MSC; for pIC50: curve of first compound; for viability, T/C: stronger effect = lower value; active means viability on the fitted dose curve at most 10% of control; inactive means the rest
How it was run: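 Single agents and combinations were tested on spheroids built from tumor cells plus HUVEC and hMSC, at half-log dilutions starting at or near clinical Cmax, else 10 microM; final DMSO 0.25% (v/v).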

[2H]c1nc(C)nc([2H])c1-c1cc(NC[C@@H](C)c2cccc3c(C(=O)NC)ccnc23)ncn1 + COc1cc2c(cc1O)CCNC21CSC2c3c(OC(C)=O)c(C)c4c(c3C(COC1=O)N1C(O)C3Cc5cc(C)c(OC)c(O)c5C(C21)N3C)OCO4
inactive: viability, T/C (second compound 30 pM, first compound 0.0316 µM) 95.9% | viability, T/C (second compound 30 pM, first compound 0.1 µM) 101% | viability, T/C (second compound 30 pM, first compound 0.316 µM) 102% | viability, T/C (second compound 30 pM, first compound 1 µM) 102% | viability, T/C (second compound 30 pM, first compound 3.16 µM) 104% | viability, T/C (second compound 30 pM, first compound 10 µM) 102% | viability, T/C (second compound 94.9 pM, first compound 0.0316 µM) 97.7% | viability, T/C (second compound 94.9 pM, first compound 0.1 µM) 97.1% | viability, T/C (second compound 94.9 pM, first compound 0.316 µM) 99.6% | viability, T/C (second compound 94.9 pM, first compound 1 µM) 98.8% | viability, T/C (second compound 94.9 pM, first compound 3.16 µM) 100% | viability, T/C (second compound 94.9 pM, first compound 10 µM) 95.7% | viability, T/C (second compound 0.0003 µM, first compound 0.0316 µM) 10.9% | viability, T/C (second compound 0.0003 µM, first compound 0.1 µM) 11.6% | viability, T/C (second compound 0.0003 µM, first compound 0.316 µM) 12.2% | viability, T/C (second compound 0.0003 µM, first compound 1 µM) 11.5% | viability, T/C (second compound 0.0003 µM, first compound 3.16 µM) 13.1% | viability, T/C (second compound 0.0003 µM, first compound 10 µM) 5.66%
active: viability, T/C (second compound 0.000949 µM, first compound 0.0316 µM) 0.9% | viability, T/C (second compound 0.000949 µM, first compound 0.1 µM) 0.98% | viability, T/C (second compound 0.000949 µM, first compound 0.316 µM) 0.92% | viability, T/C (second compound 0.000949 µM, first compound 1 µM) 0.87% | viability, T/C (second compound 0.000949 µM, first compound 3.16 µM) 0.92% | viability, T/C (second compound 0.000949 µM, first compound 10 µM) 0.94% | viability, T/C (second compound 0.003 µM, first compound 0.0316 µM) 0.96% | viability, T/C (second compound 0.003 µM, first compound 0.1 µM) 1.13% | viability, T/C (second compound 0.003 µM, first compound 0.316 µM) 4.62% | viability, T/C (second compound 0.003 µM, first compound 1 µM) 0.12% | viability, T/C (second compound 0.003 µM, first compound 3.16 µM) 0.12% | viability, T/C (second compound 0.003 µM, first compound 10 µM) 0.2%
> 7.50: pIC50 (second compound 0.0003 µM) | pIC50 (second compound 0.000949 µM) | pIC50 (second compound 0.003 µM)
< 5.00: pIC50 (second compound 30 pM) | pIC50 (second compound 94.9 pM)

Cc1sc2c(c1C)C(c1ccc(Cl)cc1)=NC(CC(=O)Nc1ccc(O)cc1)c1nnc(C)n1-2 (stereo not given) + Cn1nnc2c(C(N)=O)ncn2c1=O
7.58: pIC50 (second compound 100 µM)
7.20: pIC50 (second compound 3.16 µM)
active: viability, T/C (second compound 1 µM, first compound 0.3 µM) 1.14% | viability, T/C (second compound 1 µM, first compound 0.949 µM) 0.56% | viability, T/C (second compound 1 µM, first compound 3 µM) 0.57% | viability, T/C (second compound 3.16 µM, first compound 0.3 µM) 1.02% | viability, T/C (second compound 3.16 µM, first compound 0.949 µM) 0.71% | viability, T/C (second compound 3.16 µM, first compound 3 µM) 0.61% | viability, T/C (second compound 10 µM, first compound 0.3 µM) 1.06% | viability, T/C (second compound 10 µM, first compound 0.949 µM) 0.76% | viability, T/C (second compound 10 µM, first compound 3 µM) 0.54% | viability, T/C (second compound 31.6 µM, first compound 0.3 µM) 1.03% | viability, T/C (second compound 31.6 µM, first compound 0.949 µM) 0.85% | viability, T/C (second compound 31.6 µM, first compound 3 µM) 0.62% | viability, T/C (second compound 100 µM, first compound 0.0949 µM) 1.77% | viability, T/C (second compound 100 µM, first compound 0.3 µM) 1.29% | viability, T/C (second compound 100 µM, first compound 0.949 µM) 0.88% | viability, T/C (second compound 100 µM, first compound 3 µM) 0.73%
7.19: pIC50 (second compound 1 µM)
7.23: pIC50 (second compound 10 µM)
7.27: pIC50 (second compound 31.6 µM)
inactive: viability, T/C (second compound 1 µM, first compound 0.00949 µM) 93.6% | viability, T/C (second compound 1 µM, first compound 0.03 µM) 89.6% | viability, T/C (second compound 1 µM, first compound 0.0949 µM) 29.7% | viability, T/C (second compound 3.16 µM, first compound 0.00949 µM) 93.6% | viability, T/C (second compound 3.16 µM, first compound 0.03 µM) 89.3% | viability, T/C (second compound 3.16 µM, first compound 0.0949 µM) 28.6% | viability, T/C (second compound 10 µM, first compound 0.00949 µM) 94.3% | viability, T/C (second compound 10 µM, first compound 0.03 µM) 91.3% | viability, T/C (second compound 10 µM, first compound 0.0949 µM) 21.4% | viability, T/C (second compound 31.6 µM, first compound 0.00949 µM) 101% | viability, T/C (second compound 31.6 µM, first compound 0.03 µM) 84.8% | viability, T/C (second compound 31.6 µM, first compound 0.0949 µM) 15.5% | viability, T/C (second compound 100 µM, first compound 0.00949 µM) 91.8% | viability, T/C (second compound 100 µM, first compound 0.03 µM) 44.3%
